From patent publication US11780826B2 (Amgen Inc., priority 2017, dated 2023)

System: Bovine cardiac myofibrils
Assay: In vitro model of dose-dependent myofibril ATPase modulation (AC1.4, pyruvate kinase/lactate dehydrogenase-coupled ATPase assay at pCa25)
Format: biochemical
Settings: concentration at which ATPase activity was 1.4-fold higher than the bottom of the dose curve, mean of a minimum of two independent tests
Procedure, shortened: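 Bovine cardiac myofibrils, detergent-treated; 0.25-1.0 mg/ml. Buffer: K-PIPES 12 mM, MgCl2 2 mM, DTT 1 mM, BSA 0.1 mg/ml, pH 6.80, 22° C; Ca2+ set by EGTA/CaCl2. ATP 1 mM, NADH/PEP-coupled, A340. 4-parameter fit; n≥2.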

Row | Structure (SMILES) | AC1.4 [µM]
1 | C[C@@H](NC(=O)[C@H]1CCCN1C(=O)[C@@H]1CN(S(=O)(=O)N2CC(C#N)C2)CCN1)c1ccc(C(F)(F)F)cc1 [Example 428, 1-(((2S)-4-((3-cyano-1-azetidinyl)sulfonyl)-2-piperazinyl)carbonyl)-N-((1R)-1-(4-(trifluoromethyl)phenyl)ethyl)-D-prolinamide] | 1.606
2 | CS(=O)(=O)C1CN(S(=O)(=O)N2CCC[C@H](C(=O)N3CCC[C@@H]3C(=O)NCc3cc(F)cc(F)c3)C2)C1 [Example 429, N-(3,5-difluorobenzyl)-1-(((3S)-1-((3-(methylsulfonyl)-1-azetidinyl)sulfonyl)-3-piperidinyl)carbonyl)-D-prolinamide] | 1.6075
3 | CS(=O)(=O)c1cncc(C(=O)N2C[C@@H](F)C[C@@H]2C(=O)N[C@@H](c2cc(F)c(C(F)(F)F)cc2F)C2CC2)c1 [Example 430, (4S)-N-((R)-cyclopropyl(2,5-difluoro-4-(trifluoromethyl)phenyl)methyl)-4-fluoro-1-((5-(methylsulfonyl)-3-pyridinyl)carbonyl)-D-prolinamide] | 1.474
4 | C[C@H](NC(=O)[C@H]1CCCN1C(=O)[C@H]1CCCN(S(=O)(=O)N2CC(C#N)C2)C1)c1ccc(C(F)(F)F)cc1 [Example 431, 1-(((3S)-1-((3-cyano-1-azetidinyl)sulfonyl)-3-piperidinyl)carbonyl)-N-((1S)-1-(4-(trifluoromethyl)phenyl)ethyl)-D-prolinamide] | 1.6305
5 | C[C@@H](NC(=O)[C@H]1CCCN1C(=O)c1cccc(S(=O)(=O)N2CC3(CC3)C2)c1)c1ccc(C(F)(F)F)cc1 [Example 434] | 1.66
6 | N#CC1CN(S(=O)(=O)N2CCC[C@H](C(=O)N3CCC[C@@H]3C(=O)NCc3ccc(OC(F)F)cc3)C2)C1 [Example 435, 1-(((3S)-1-((3-cyano-1-azetidinyl)sulfonyl)-3-piperidinyl)carbonyl)-N-(4-(difluoromethoxy)benzyl)-D-prolinamide] | 1.681
7 | C[C@@H](NC(=O)[C@H]1CCCN1C(=O)c1cccc(S(=O)(=O)N(C)C)c1)c1ccc(C(F)(F)F)cc1 [Example 436, 1-(3-(dimethylsulfamoyl)benzoyl)-N-((1R)-1-(4-(trifluoromethyl)phenyl)ethyl)-D-prolinamide] | 1.7
8 | N#CC1CN(S(=O)(=O)N2CCC[C@H](C(=O)N3CCC[C@@H]3C(=O)NCc3ccc(F)cc3)C2)C1 [Example 437, 1-(((3S)-1-((3-cyano-1-azetidinyl)sulfonyl)-3-piperidinyl)carbonyl)-N-(4-fluorobenzyl)-D-prolinamide] | 1.7085
9 | N#CC1CN(S(=O)(=O)N2CCC[C@H](C(=O)N3CCC[C@@H]3C(=O)NCc3cccc(Cl)c3)C2)C1 [Example 438, N-(3-chlorobenzyl)-1-(((3S)-1-((3-cyano-1-azetidinyl)sulfonyl)-3-piperidinyl)carbonyl)-D-prolinamide] | 1.712
10 | Cc1cc(CNC(=O)[C@H]2CCCN2C(=O)[C@H]2CCCN(S(=O)(=O)N3CC(C#N)C3)C2)ccc1F [Example 439, 1-(((3S)-1-((3-cyano-1-azetidinyl)sulfonyl)-3-piperidinyl)carbonyl)-N-(4-fluoro-3-methylbenzyl)-D-prolinamide] | 1.7125
11 | N#CC1CN(S(=O)(=O)N2CCC[C@H](C(=O)N3CCC[C@@H]3C(=O)NCc3cc(F)ccc3Cl)C2)C1 [Example 440, N-(2-chloro-5-fluorobenzyl)-1-(((3S)-1-((3-cyano-1-azetidinyl)sulfonyl)-3-piperidinyl)carbonyl)-D-prolinamide] | 1.7235
12 | N#CC1CN(S(=O)(=O)N2CCC[C@H](C(=O)N3CCC[C@@H]3C(=O)N[C@@H](CO)c3ccc(Cl)c(F)c3)C2)C1 [Example 441, N-((1R)-1-(4-chloro-3-fluorophenyl)-2-hydroxyethyl)-1-(((3S)-1-((3-cyano-1-azetidinyl)sulfonyl)-3-piperidinyl)carbonyl)-D-prolinamide] | 1.7265

Results, then the molecule that gave them:

Row | AC1.4 [µM] | Structure (SMILES)
13 | 1.7305 | N#CC1CN(S(=O)(=O)N2CCC[C@H](C(=O)N3CCC[C@@H]3C(=O)NC3CCc4ccccc43)C2)C1 (stereo partly drawn) [Example 442, (2R)-1-((S)-1-((3-cyanoazetidin-1-yl)sulfonyl)piperidine-3-carbonyl)-N-(2,3-dihydro-1H-inden-1-yl)pyrrolidine-2-carboxamide]
14 | 1.7885 | Cc1cc(Cl)cc(CNC(=O)[C@H]2CCCN2C(=O)[C@H]2CCCN(S(=O)(=O)N3CC(C#N)C3)C2)c1 [Example 443, N-(3-chloro-5-methylbenzyl)-1-(((3S)-1-((3-cyano-1-azetidinyl)sulfonyl)-3-piperidinyl)carbonyl)-D-prolinamide]
15 | 1.547 | CS(=O)(=O)c1ccnc(C(=O)N2[C@@H](C(=O)N[C@@H](c3ccc(C(F)(F)F)cc3F)C3CC3)C[C@H]3C[C@H]32)c1 [Example 444, (1R,3R,5R)-N-((R)-cyclopropyl(2-fluoro-4-(trifluoromethyl)phenyl)methyl)-2-(4-(methylsulfonyl)picolinoyl)-2-azabicyclo[3.1.0]hexane-3-carboxamide]
16 | 1.823 | Cc1cc(CNC(=O)[C@H]2CCCN2C(=O)[C@H]2CCCN(S(=O)(=O)N3CC(C#N)C3)C2)cc(C)c1F [Example 445, 1-(((3S)-1-((3-cyano-1-azetidinyl)sulfonyl)-3-piperidinyl)carbonyl)-N-(4-fluoro-3,5-dimethylbenzyl)-D-prolinamide]
17 | 1.826 | NS(=O)(=O)c1cccc(C(=O)N2CC(F)(F)C[C@@H]2C(=O)N[C@@H](c2ccc(C(F)(F)F)cc2F)C2CC2)c1 [Example 446, N-((R)-cyclopropyl(2-fluoro-4-(trifluoromethyl)phenyl)methyl)-4,4-difluoro-1-(3-sulfamoylbenzoyl)-D-prolinamide]
18 | 1.831 | N#CC1CN(S(=O)(=O)N2CCC[C@H](C(=O)N3CCC[C@@H]3C(=O)NCc3ccc(C4CC4)cc3)C2)C1 [Example 447, 1-(((3S)-1-((3-cyano-1-azetidinyl)sulfonyl)-3-piperidinyl)carbonyl)-N-(4-cyclopropylbenzyl)-D-prolinamide]
19 | 1.844 | N#CC1CN(S(=O)(=O)N2CCC[C@H](C(=O)N3CCOC[C@@H]3C(=O)NCc3ccc(C(F)F)cc3)C2)C1 [Example 448, (3R)-4-(((3S)-1-((3-cyano-1-azetidinyl)sulfonyl)-3-piperidinyl)carbonyl)-N-(4-(difluoromethyl)benzyl)-3-morpholinecarboxamide]
20 | 1.845 | O=C(NCc1ccc(C(F)(F)F)cc1F)[C@H]1CCCN1C(=O)c1cccc(S(=O)(=O)N2CC(O)C2)c1 [Example 449, N-(2-fluoro-4-(trifluoromethyl)benzyl)-1-(3-((3-hydroxy-1-azetidinyl)sulfonyl)benzoyl)-D-prolinamide]
21 | 1.8545 | O=C(NCc1ccc(C(F)(F)F)cc1)[C@H]1CCCN1C(=O)[C@H]1CCCN(S(=O)(=O)N2CC(F)(C3CC3)C2)C1 [Example 450, 1-(((3S)-1-((3-cyclopropyl-3-fluoro-1-azetidinyl)sulfonyl)-3-piperidinyl)carbonyl)-N-(4-(trifluoromethyl)benzyl)-D-prolinamide]
22 | 1.8635 | O=C(N[C@@H](c1ccc(C(F)(F)F)cc1F)C1CC1)[C@H]1CCCN1C(=O)c1cccc(C2(F)CN(S(=O)(=O)C3COC3)C2)c1 [Example 451, N-((R)-cyclopropyl(2-fluoro-4-(trifluoromethyl)phenyl)methyl)-1-(3-(3-fluoro-1-(3-oxetanylsulfonyl)-3-azetidinyl)benzoyl)-D-prolinamide]
23 | 1.8655 | Cc1ccc(C(C)NC(=O)[C@H]2CCCN2C(=O)[C@H]2CCCN(S(=O)(=O)N3CC(C#N)C3)C2)cc1 (stereo partly drawn) [Example 452, (2R)-1-((S)-1-((3-cyanoazetidin-1-yl)sulfonyl)piperidine-3-carbonyl)-N-(1-(p-tolyl)ethyl)pyrrolidine-2-carboxamide]
24 | 1.5515 | CC[C@@H](NC(=O)[C@H]1CCCN1C(=O)c1cccc(S(C)(=O)=O)c1)c1cc(F)c(Cl)cc1F [Example 453, N-((1R)-1-(4-chloro-2,5-difluorophenyl)propyl)-1-(3-(methylsulfonyl)benzoyl)-D-prolinamide]
25 | 1.8665 | O=C(NCc1ccc(C(F)(F)F)cc1)[C@H]1CCCN1C(=O)c1cccc(S(=O)(=O)Cc2ccccc2)c1 [Example 454, 1-(3-(benzylsulfonyl)benzoyl)-N-(4-(trifluoromethyl)benzyl)-D-prolinamide]
26 | 1.877 | C[C@H](C(=O)NCc1cccc(C(F)(F)F)c1)N(C)C(=O)c1cccc(S(=O)(=O)N2CC(C#N)C2)c1 [Example 455, 3-((3-cyano-1-azetidinyl)sulfonyl)-N-methyl-N-((1R)-1-methyl-2-oxo-2-((3-(trifluoromethyl)benzyl)amino)ethyl)benzamide]
27 | 1.882 | N#CC1(c2cccc(C(=O)N3[C@@H](C(=O)N[C@@H](c4ccc(C(F)(F)F)cc4F)C4COC4)C[C@H]4C[C@H]43)c2)CC1 [Example 456, (1R,3R,5R)-2-(3-(1-cyanocyclopropyl)benzoyl)-N-((R)-(2-fluoro-4-(trifluoromethyl)phenyl)(3-oxetanyl)methyl)-2-azabicyclo[3.1.0]hexane-3-carboxamide]
28 | 1.8865 | COc1ccc(CNC(=O)[C@H]2CCCN2C(=O)[C@H]2CCCN(S(=O)(=O)N3CC(C#N)C3)C2)cc1F [Example 457, 1-(((3S)-1-((3-cyano-1-azetidinyl)sulfonyl)-3-piperidinyl)carbonyl)-N-(3-fluoro-4-methoxybenzyl)-D-prolinamide]
29 | 1.5845 | Cc1cc(C(=O)N2[C@@H](C(=O)N[C@@H](c3ccc(C(F)(F)F)cc3F)C3CC3)C[C@H]3C[C@H]32)c(NC2CC2)cn1 [Example 458, (1R,3R,5R)-2-((5-(cyclopropylamino)-2-methyl-4-pyridinyl)carbonyl)-N-((R)-cyclopropyl(2-fluoro-4-(trifluoromethyl)phenyl)methyl)-2-azabicyclo[3.1.0]hexane-3-carboxamide]
